In patent publication US12410160B2 (Gilead Sciences, Inc., priority 2021, dated 2025):
Like-named read-outs stand apart in the source and are kept apart here.

What was measured:
HepG2 cells = experiment: F1P Cell-Based Assay (EC50), 13C6-fructose-1-phosphate in HepG2 cells (cell culture medium or 50% human plasma)
human KHK-C = human KHK-C (Homo sapiens (Human), UniProt P50053); experiment: KHK Biochemical Assay (IC50), ADP-Glo, KHK-C; settings: average of at least two separate assays
Method in brief: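 His-tagged enzyme expressed in BL21 (DE3), Ni-NTA purified. Compounds, serially diluted 1:3 in DMSO, pre-incubated 30 min with enzyme in 50 mM Hepes pH 7.4, 140 mM KCl, 5 mM MgCl2, 0.01% Triton-X, then ATP and fructose added; 4 h at room temperature. ADP formation read by ADP-Glo luminescence.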

[1] = Homo sapiens, HepG2, HepG2 cells, 50% human plasma, read-out: F1P 50% HP EC50
[2] = Homo sapiens, HepG2, read-out: F1P 10% FBS EC50, HepG2 cells, cell culture medium (10% FBS)
[3] = HepG2 cells, 50% human plasma, read-out: F1P 50% HP EC50
[4] = read-out: F1P 10% FBS EC50, HepG2 cells, cell culture medium (10% FBS)

human KHK-C, sequence (P50053 whole entry): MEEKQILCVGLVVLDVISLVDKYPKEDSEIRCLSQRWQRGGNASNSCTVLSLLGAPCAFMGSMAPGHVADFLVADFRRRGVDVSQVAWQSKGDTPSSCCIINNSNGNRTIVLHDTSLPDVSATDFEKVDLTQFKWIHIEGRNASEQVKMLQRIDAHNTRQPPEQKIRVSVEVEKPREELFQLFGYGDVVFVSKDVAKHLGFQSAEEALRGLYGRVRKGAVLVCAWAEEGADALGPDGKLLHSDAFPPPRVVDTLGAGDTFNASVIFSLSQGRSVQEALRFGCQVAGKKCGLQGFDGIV

SMILES | EC50 (HepG2 cells; [1]) | EC50 (HepG2 cells; [2]) | IC50 (human KHK-C) | EC50 (HepG2 cells; [3]) | EC50 (HepG2 cells; [4]) | EC50 (HepG2 cells; Homo sapiens, HepG2, read-out: F1P 10% FBS EC50) | EC50 (HepG2 cells; Homo sapiens, HepG2, read-out: F1P 50% HP EC50)
C[C@H]1[C@H](O)CN1c1nc(-c2ccc3c(c2)CCCCC3NS(C)(=O)=O)c2c(n1)C(F)(F)CC2 (stereo partly drawn) [Example 547, N-(2-(7,7-difluoro-2-((2S,3R)-3-hydroxy-2-methylazetidin-1-yl)-6,7-dihydro-5H-cyclopenta[d]pyrimidin-4-yl)-6,7,8,9-tetrahydro-5H-benzo[7]annulen-5-yl)methanesulfonamide] | > 500 nM | 314 nM | 33.6 nM | – | – | – | –
C[C@H]1[C@H](F)CN1c1nc(-c2ccc3c(c2)O[C@H](CO)CNC3=O)c2c(n1)C(F)(F)CC2 [Example 590, (S)-8-(7,7-difluoro-2-((2S,3R)-3-fluoro-2-methylazetidin-1-yl)-6,7-dihydro-5H-cyclopenta[d]pyrimidin-4-yl)-2-(hydroxymethyl)-3,4-dihydrobenzo[f][1,4]oxazepin-5(2H)-one] | 23.2 nM | 9.1 nM | 1.8 nM | – | – | – | –
CCC1CNC(=O)c2ccc(-c3nc(N4C[C@@H](O)[C@@H]4C)nc4c3CCC4(F)F)cc2O1 (stereo partly drawn) [Example 591, 8-(7,7-difluoro-2-((2S,3R)-3-hydroxy-2-methylazetidin-1-yl)-6,7-dihydro-5H-cyclopenta[d]pyrimidin-4-yl)-2-ethyl-3,4-dihydrobenzo[f][1,4]oxazepin-5(2H)-one] | 36 nM | 13.5 nM | 5.5 nM | – | – | – | –
C[C@H]1[C@H](O)CN1c1nc(-c2ccc3c(c2)OC(CF)CNC3=O)c2c(n1)C(F)(F)CC2 (stereo partly drawn) [Example 594, 8-(7,7-difluoro-2-((2S,3R)-3-hydroxy-2-methylazetidin-1-yl)-6,7-dihydro-5H-cyclopenta[d]pyrimidin-4-yl)-2-(fluoromethyl)-3,4-dihydrobenzo[f][1,4]oxazepin-5(2H)-one] | 21 nM | 12.6 nM | 3.3 nM | – | – | – | –
C[C@H]1CCN1c1nc2c(c(-c3cccc(S(=N)(=O)C(F)F)c3)n1)CCC2 (stereo partly drawn) [Example 602, (difluoromethyl)(imino)(3-(2-((S)-2-methylazetidin-1-yl)-6,7-dihydro-5H-cyclopenta[d]pyrimidin-4-yl)phenyl)-λ^6-sulfanone] | > 500 nM | 92.9 nM | 59.7 nM | – | – | – | –
C[C@H]1[C@H](O)CN1c1nc(-c2cccc(S(=N)(=O)C(F)F)c2)c2c(n1)C(F)(F)CC2 (stereo partly drawn) [Example 603, (3-(7,7-difluoro-2-((2S,3R)-3-hydroxy-2-methylazetidin-1-yl)-6,7-dihydro-5H-cyclopenta[d]pyrimidin-4-yl)phenyl)(difluoromethyl)(imino)-λ^6-sulfanone] | 103 nM | 77.2 nM | 25.5 nM | – | – | – | –
C[C@H]1CCN1c1nc(-c2ccc3c(c2)[C@H](NS(C)(=O)=O)CC3)c2c(n1)C(F)(F)CC2 [Example 608, N—((R)-6-(7,7-difluoro-2-((S)-2-methylazetidin-1-yl)-6,7-dihydro-5H-cyclopenta[d]pyrimidin-4-yl)-2,3-dihydro-1H-inden-1-yl)methanesulfonamide] | 23.2 nM | 6.8 nM | 0.7 nM | – | – | – | –
C[C@H]1[C@H](O)CN1c1nc(-c2cccc([C@H]3CCS(=O)(=O)N3)c2)c2c(n1)C(F)(F)CC2 [Example 617] | – | – | 3.5 nM | 30.7 nM | 10.2 nM | – | –
C[C@H]1[C@H](O)CN1c1nc(-c2cccc(CN3CCCS3(=O)=O)c2)c2c(n1)C(F)(F)CC2 [Example 620] | 113 nM | 19.1 nM | 9.7 nM | – | – | – | –
C[C@H]1[C@H](O)CN1c1nc(-c2ccc3c(c2)OC[C@@H]3NS(=O)(=O)C2CC2)c2c(n1)C(F)(F)CC2 [Example 625] | 72.2 nM | 17.6 nM | 1.5 nM | – | – | – | –
C[C@H]1[C@H](O)CN1c1nc(-c2ccc3c(c2)OC[C@@H]3NS(=O)(=O)c2ccccc2)c2c(n1)C(F)(F)CC2 [Example 626, N-((R)-6-(7,7-difluoro-2-((2S,3R)-3-hydroxy-2-methylazetidin-1-yl)-6,7-dihydro-5H-cyclopenta[d]pyrimidin-4-yl)-2,3-dihydrobenzofuran-3-yl)benzenesulfonamide] | 123 nM | 35.6 nM | 26.8 nM | – | – | – | –
C[C@H]1[C@H](O)CN1c1nc(-c2ccc3c(c2)OC[C@@H]3NS(=O)(=O)CC#N)c2c(n1)C(F)(F)CC2 [Example 627, 1-cyano-N-((R)-6-(7,7-difluoro-2-((2S,3R)-3-hydroxy-2-methylazetidin-1-yl)-6,7-dihydro-5H-cyclopenta[d]pyrimidin-4-yl)-2,3-dihydrobenzofuran-3-yl)methanesulfonamide] | 4.1 nM | 4.5 nM | 6 nM | – | – | – | –
CC1(C)CC(NS(C)(=O)=O)c2ccc(-c3nc(N4CC[C@@H]4CF)nc4c3CCC4(F)F)cc21 (stereo partly drawn) [Example 629, N-(5-(7,7-difluoro-2-((R)-2-(fluoromethyl)azetidin-1-yl)-6,7-dihydro-5H-cyclopenta[d]pyrimidin-4-yl)-3,3-dimethyl-2,3-dihydro-1H-inden-1-yl)methanesulfonamide] | > 500 nM | 107 nM | 4.1 nM | – | – | – | –
C[C@H]1[C@H](O)CN1c1nc(-c2ccc3c(c2)C(C)(C)CC3NS(C)(=O)=O)c2c(n1)C(F)(F)CC2 (stereo partly drawn) [Example 630, N-(5-(7,7-difluoro-2-((2S,3R)-3-hydroxy-2-methylazetidin-1-yl)-6,7-dihydro-5H-cyclopenta[d]pyrimidin-4-yl)-3,3-dimethyl-2,3-dihydro-1H-inden-1-yl)methanesulfonamide] | > 500 nM | 68.8 nM | 2.4 nM | – | – | – | –
C[C@H]1CCN1c1nc(-c2ccc3c(c2)S(=O)(=O)CC3N)c2c(n1)C(F)(F)CC2 (stereo partly drawn) [Example 656, 6-[7,7-difluoro-2-[(2S)-2-methylazetidin-1-yl]-5,6-dihydrocyclopenta[d]pyrimidin-4-yl]-1,1-dioxo-2,3-dihydrobenzothiophen-3-amine] | 11.8 nM | 4.5 nM | 1.7 nM | – | – | – | –
C[C@H]1[C@H](O)CN1c1nc(-c2ccc3c(c2)CCNC3)c2c(n1)C(F)(F)CC2 [Example 657, (2S,3R)-1-[7,7-difluoro-4-(1,2,3,4-tetrahydroisoquinolin-6-yl)-5,6-dihydrocyclopenta[d]pyrimidin-2-yl]-2-methyl-azetidin-3-ol] | – | – | 2.7 nM | – | – | 4.1 nM | 4.2 nM
C[C@H]1[C@H](O)CN1c1nc(-c2ccc([C@@H](N)C(F)F)cc2)c2c(n1)C(F)(F)CC2 [Example 659, (2S,3R)-1-[4-[4-[(1R)-1-amino-2,2-difluoro-ethyl]phenyl]-7,7-difluoro-5,6-dihydrocyclopenta[d]pyrimidin-2-yl]-2-methyl-azetidin-3-ol] | 54 nM | 42.5 nM | 8 nM | – | – | – | –
C[C@H]1[C@H](O)CN1c1nc(-c2cccc(N=S(C)(=O)C3CC3)c2)c2c(n1)C(F)(F)CC2 (stereo partly drawn) [Example 667, (2S,3R)-1-[4-[3-[(cyclopropyl-methyl-oxo-λ^6-sulfanylidene)amino]phenyl]-7,7-difluoro-5,6-dihydrocyclopenta[d]pyrimidin-2-yl]-2-methyl-azetidin-3-431] | – | – | 42.3 nM | 305 nM | 61.3 nM | – | –
C[C@H]1CCN1c1nc(-c2cccc(N=S(C)(=O)C3CC3)c2)c2c(n1)C(F)(F)CC2 (stereo partly drawn) [Example 668, cyclopropyl-[3-[7,7-difluoro-2-[(2S)-2-methylazetidin-1-yl]-5,6-dihydrocyclopenta[d]pyrimidin-4-yl]phenyl]imino-methyl-oxo-λ^6-sulfane] | > 500 nM | 46.7 nM | 32.1 nM | – | – | – | –
C[C@H]1CCN1c1nc(-c2cccc(N=S3(=O)CCCC3)c2)c2c(n1)C(F)(F)CC2 [Example 669, 1-[3-[7,7-difluoro-2-[(2S)-2-methylazetidin-1-yl]-5,6-dihydrocyclopenta[d]pyrimidin-4-yl]phenyl]iminothiolane 1-oxide] | 429 nM | 28.6 nM | 16.2 nM | – | – | – | –
C[C@H]1[C@H](O)CN1c1nc(-c2ccc3c(c2)OC[C@@H]3n2ccnn2)c2c(n1)C(F)(F)CC2 [Example 670] | 31.4 nM | 25.3 nM | 24.3 nM | – | – | – | –
C[C@H]1[C@H](O)CN1c1nc(-c2cccc(N=S3(=O)CCCC3)c2)c2c(n1)C(F)(F)CC2 [Example 671, (2S,3R)-1-[7,7-difluoro-4-[3-[(1-oxothiolan-1-ylidene)amino]phenyl]-5,6-dihydroeyelopenta[d]pyrimidin-2-yl]-2-methyl-azetidin-3-ol] | 269 nM | 35.1 nM | 32.9 nM | – | – | – | –
C[C@H]1[C@H](O)CN1c1nc(-c2cccc(N=S3(=O)CCNCC3)c2)c2c(n1)C(F)(F)CC2 [Example 672, (2S,3R)-1-[7,7-difluoro-4-[3-[(1-oxo-1,4-thiazinan-1-ylidene)amino]phenyl]-5,6-dihydroeyelopenta[d]pyrimidin-2-yl]-2-methyl-azetidin-3-ol] | 105 nM | 56.2 nM | 33.2 nM | – | – | – | –
C[C@H]1[C@H](F)CN1c1nc(-c2ccc3c(c2)S(=O)(=O)CC3NS(C)(=O)=O)c2c(n1)C(F)(F)CC2 (stereo partly drawn) [Example 674, N-[6-[7,7-difluoro-2-[(2S,3R)-3-fluoro-2-methyl-azetidin-1-yl]-5,6-dihydrocyclopenta[d]pyrimidin-4-yl]-1,1-dioxo-2,3-dihydrobenzothiophen-3-yl]methanesulfonamide] | 232 nM | 3 nM | 0.2 nM | – | – | – | –
CS(=N)(=O)c1cccc(-c2nc(N3CC[C@@H]3C#N)nc3c2CCC3(F)F)c1 (stereo partly drawn) [Example 709, (2R)-1-(7,7-difluoro-4-(3-(S-methylsulfonimidoyl)phenyl)-6,7-dihydro-5H-cyclopenta[d]pyrimidin-2-yl)azetidine-2-carbonitrile] | 101 nM | 75.2 nM | 41.7 nM | – | – | – | –
